Laboratory results: ChEMBL document CHEMBL4229457, “Mechanism underlying inhibitory effect of six dicaffeoylquinic acid isomers on melanogenesis and the computational molecular modeling studies” (Bioorg Med Chem, 2018)
Activity calls are given as the source filed them. No cut-off for these calls is given here.

Assays:
[1] = tested on: B16-F1; test: Cytotoxicity against mouse B16-F1 cells assessed as reduction in cell viability at 25 uM after 72 hrs by MTT assay; format: cell-based; conditions: b16-f1, 72 h
[2] = tested on: B16-F1; test: Inhibition of alpha-MSH-stimulated melanogenesis in mouse B16-F1 cells assessed as reduction in intracellular melanin production at 25 uM after 72 hrs relative to control; format: functional; conditions: B16-F1, 72 h
[3] = tested on: B16-F1; test: Inhibition of adenylate cyclase in alpha-MSH-stimulated mouse B16-F1 cells assessed as reduction in cAMP-CREB signaling pathway-mediated TYR expression level at 25 uM after 48 to 72 hrs by Western blot analysis; format: cell-based
[4] = tested on: B16-F1; test: Inhibition of adenylate cyclase in alpha-MSH-stimulated mouse B16-F1 cells assessed as reduction in cAMP-CREB signaling pathway-mediated DCT expression level at 25 uM after 48 to 72 hrs by Western blot analysis; format: cell-based
[5] = molecular target: T1, Tyrosinase (Mus musculus) (UniProt P11344); conditions: at 25 µM
T1 sequence (whole entry): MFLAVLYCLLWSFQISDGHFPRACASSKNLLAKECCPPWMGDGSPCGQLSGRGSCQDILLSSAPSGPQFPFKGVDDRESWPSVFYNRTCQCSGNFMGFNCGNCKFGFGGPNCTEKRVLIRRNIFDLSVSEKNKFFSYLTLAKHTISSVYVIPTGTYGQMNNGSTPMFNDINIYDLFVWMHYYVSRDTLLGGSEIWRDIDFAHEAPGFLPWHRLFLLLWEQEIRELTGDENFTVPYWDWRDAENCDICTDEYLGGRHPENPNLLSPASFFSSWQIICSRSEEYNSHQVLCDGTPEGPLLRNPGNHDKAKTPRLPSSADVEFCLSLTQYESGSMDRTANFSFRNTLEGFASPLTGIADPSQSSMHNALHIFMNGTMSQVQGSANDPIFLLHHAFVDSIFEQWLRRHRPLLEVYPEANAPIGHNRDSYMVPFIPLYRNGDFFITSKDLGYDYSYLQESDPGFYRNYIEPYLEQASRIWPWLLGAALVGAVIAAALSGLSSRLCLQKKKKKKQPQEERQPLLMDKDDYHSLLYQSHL
Description: Inhibition of tyrosinase in mouse B16-F1 cell lysates assessed as reduction in melanin production at 25 uM using L-DOPA as substrate incubated for 30 mins followed by substrate addition measured after 30 mins

[6] = Inhibition of melanogenesis in HEMn assessed as reduction in intracellular melanin production at 1 uM after 72 hrs relative to control; format: functional; conditions: Homo sapiens
[7] = tested on: B16-F1; test: Inhibition of adenylate cyclase in alpha-MSH-stimulated mouse B16-F1 cells assessed as reduction in cAMP-CREB signaling pathway-mediated TRP1 expression level at 25 uM after 48 to 72 hrs by Western blot analysis; format: cell-based
[8] = tested on: B16-F1; test: Inhibition of adenylate cyclase in alpha-MSH-stimulated mouse B16-F1 cells assessed as reduction in cAMP-CREB signaling pathway-mediated MITF expression level at 25 uM after 48 to 72 hrs by Western blot analysis; format: cell-based
[9] = tested on: B16-F1; test: Inhibition of adenylate cyclase in alpha-MSH-stimulated mouse B16-F1 cells assessed as reduction in CREB phosphorylation at 25 uM measured up to 360 mins by Western blot analysis; format: cell-based
[10] = species: Mus musculus; test: Inhibition of adenylate cyclase in mouse B16-F1 cell lysates assessed as reduction in forskolin-induced cAMP levels incubated for 6 hrs followed by forskolin stimulation measured after 30 mins by immuno assay
[11] = species: Mus musculus; test: Inhibition of adenylate cyclase in mouse B16-F1 cell lysates assessed as reduction in alpha-MSH-induced cAMP levels incubated for 6 hrs followed by forskolin stimulation measured after 30 mins by immuno assay
[12] = tested on: B16-F1; test: Downregulation of adenylate cyclase protein expression level in alpha-MSH-stimulated mouse B16-F1 cells at 25 uM by Western blot analysis; format: functional, cell-based
[13] = Inhibition of melanogenesis in HEMn assessed as reduction in intracellular melanin production at 5 uM after 72 hrs relative to control; format: functional; conditions: Homo sapiens
[14] = Inhibition of melanogenesis in HEMn assessed as reduction in intracellular melanin production at 10 uM after 72 hrs relative to control; format: functional; conditions: Homo sapiens
[15] = Inhibition of melanogenesis in HEMn assessed as reduction in intracellular melanin production at 25 uM after 72 hrs relative to control; format: functional; conditions: Homo sapiens
[16] = molecular target: T2, Tyrosinase (Homo sapiens) (UniProt P14679); test: Inhibition of tyrosinase in HEMn lysates assessed as reduction in melanin production using L-DOPA as substrate incubated for 30 mins followed by substrate addition measured after 30 mins
T2 sequence (whole entry): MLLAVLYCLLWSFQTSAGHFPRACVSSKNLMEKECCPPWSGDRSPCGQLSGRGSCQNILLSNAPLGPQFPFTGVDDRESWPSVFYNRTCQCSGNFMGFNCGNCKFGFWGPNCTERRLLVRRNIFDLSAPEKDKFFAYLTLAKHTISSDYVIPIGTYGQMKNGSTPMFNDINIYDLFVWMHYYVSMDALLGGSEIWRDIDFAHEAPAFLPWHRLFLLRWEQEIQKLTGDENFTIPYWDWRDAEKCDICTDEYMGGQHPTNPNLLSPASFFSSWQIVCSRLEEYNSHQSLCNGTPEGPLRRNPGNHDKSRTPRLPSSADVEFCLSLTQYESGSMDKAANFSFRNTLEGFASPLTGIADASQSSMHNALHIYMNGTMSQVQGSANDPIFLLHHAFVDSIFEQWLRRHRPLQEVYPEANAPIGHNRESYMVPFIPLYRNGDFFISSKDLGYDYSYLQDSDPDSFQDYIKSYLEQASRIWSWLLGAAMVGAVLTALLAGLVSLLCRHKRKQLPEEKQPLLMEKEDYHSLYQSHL

SMILES	inhibition [5]	inhibition [10]	inhibition [11]	inhibition [16]	Activity [1]	inhibition at 25 µM [2]	inhibition [3]	inhibition [4]	inhibition at 1 µM [6]	inhibition [7]	inhibition [8]	inhibition [9]	Activity [12]	inhibition at 5 µM [13]	inhibition at 10 µM [14]	inhibition at 25 µM [15]
O=C(/C=C/c1ccc(O)c(O)c1)O[C@@H]1[C@H](O)C[C@@](O)(C(=O)O)C[C@H]1OC(=O)/C=C/c1ccc(O)c(O)c1	> 20%				Non-Toxic	26%	Active	Active								
O=C(/C=C/c1ccc(O)c(O)c1)O[C@H]1[C@H](O)C[C@@](O)(C(=O)O)C[C@H]1OC(=O)/C=C/c1ccc(O)c(O)c1	> 20%	Dose-dependent effect	Dose-dependent effect	Dose-dependent effect	Non-Toxic	84%	Active	Active	7.7%	Active	91%	Active	inactive	11.2%	25.8%	51.2%
OC[C@H]1O[C@@H](Oc2ccc(O)cc2)[C@H](O)[C@@H](O)[C@@H]1O [ARBUTIN]	Active					34%										

Further lines, with some results ahead:

inhibition [5]	inhibition [10]	inhibition [11]	inhibition [16]	SMILES	Activity [1]	inhibition at 25 µM [2]	inhibition [3]	inhibition [4]	inhibition at 1 µM [6]	inhibition [7]	inhibition [8]	inhibition [9]	Activity [12]	inhibition at 5 µM [13]	inhibition at 10 µM [14]	inhibition at 25 µM [15]
> 20%				O=C(/C=C/c1ccc(O)c(O)c1)O[C@@H]1C[C@@](OC(=O)/C=C/c2ccc(O)c(O)c2)(C(=O)O)C[C@@H](O)[C@@H]1O [CYNARIN]	Non-Toxic	61%	72%	Active								
> 20%				O=C(/C=C/c1ccc(O)c(O)c1)OC1[C@H](O)CC(OC(=O)/C=C/c2ccc(O)c(O)c2)(C(=O)O)C[C@@H]1O (stereo not given in full)	Non-Toxic	18%	92%	Active								
> 20%				O=C(/C=C/c1ccc(O)c(O)c1)O[C@@H]1C[C@](O)(C(=O)O)C[C@@H](OC(=O)/C=C/c2ccc(O)c(O)c2)[C@H]1O	Non-Toxic	26%	Active	Active		Active	Active					
> 20%				O=C(/C=C/c1ccc(O)c(O)c1)O[C@H]1C[C@@](OC(=O)/C=C/c2ccc(O)c(O)c2)(C(=O)O)C[C@H](O)[C@@H]1O	Non-Toxic	26%	66%	Active								
